In ChEMBL document CHEMBL4715724, “Novel 5-substituted-2-anilinoquinolines with 3-(morpholino or 4-methylpiperazin-1-yl)propoxy moiety as broad spectrum antiproliferative agents: Synthesis, cell based assays and kinase screening” (Bioorg Med Chem Lett, 2016):

Columns and labels:
[1] = molecular target: Serine/threonine-protein kinase mTOR (Homo sapiens) (UniProt P42345); experiment: Inhibition of human mTOR at 10 uM relative to control
A549 = experiment: cells; type: functional; conditions: Homo sapiens, time 48 hrs
Description: Growth inhibition of human A549/ATCC cells incubated for 48 hrs by sulforhodamine B assay

[2] = molecular target: Calcium/calmodulin-dependent protein kinase type II subunit beta (Homo sapiens) (UniProt Q13554); experiment: Inhibition of CaMK2beta (unknown origin) at 10 uM relative to control
[3] = molecular target: Tyrosine-protein kinase JAK2 (Homo sapiens) (UniProt O60674); experiment: Inhibition of recombinant C-terminal His6-tagged human JAK2 (808 to end residues) expressed in baculovirus infected Sf21 insect cells at 10 uM relative to control
[4] = molecular target: Vascular endothelial growth factor receptor 2 (Homo sapiens) (UniProt P35968); experiment: Inhibition of N-terminal His6-tagged recombinant human KDR (790 to end residues) expressed in baculovirus infected Sf21 cells at 10 uM relative to control
[5] = molecular target: Ephrin type-B receptor 4 (Homo sapiens) (UniProt P54760); experiment: Inhibition of human EphB4 at 10 uM relative to control
[6] = tested on: Panel NCI-60 (60 carcinoma cell lines); experiment: cells; type: functional; conditions: Homo sapiens, time 48 hrs
Description: Growth inhibition of human Panel NCI-60 (60 carcinoma cell lines) incubated for 48 hrs by sulforhodamine B assay

[7] = molecular target: Aurora kinase A (Homo sapiens) (UniProt O14965); experiment: Inhibition of human recombinant Aurora A assessed as residual activity at 10 uM relative to control
Sequence of Aurora kinase A (Homo sapiens) (O14965 whole entry): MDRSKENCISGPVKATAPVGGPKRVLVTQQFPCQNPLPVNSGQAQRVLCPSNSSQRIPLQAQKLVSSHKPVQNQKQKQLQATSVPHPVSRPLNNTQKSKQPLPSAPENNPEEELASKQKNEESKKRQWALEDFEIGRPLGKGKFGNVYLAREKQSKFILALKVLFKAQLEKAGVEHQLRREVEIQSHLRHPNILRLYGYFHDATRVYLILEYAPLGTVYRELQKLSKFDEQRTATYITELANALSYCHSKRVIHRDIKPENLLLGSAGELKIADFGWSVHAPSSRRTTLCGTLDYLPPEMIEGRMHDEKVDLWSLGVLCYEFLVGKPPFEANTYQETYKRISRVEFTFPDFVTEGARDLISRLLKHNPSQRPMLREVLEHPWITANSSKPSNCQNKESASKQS

U-251 = experiment: cells; type: functional; conditions: Homo sapiens, time 48 hrs
Description: Growth inhibition of human U-251 cells incubated for 48 hrs by sulforhodamine B assay

[8] = molecular target: Receptor-type tyrosine-protein kinase FLT3 (Homo sapiens) (UniProt P36888); experiment: Inhibition of human FLT3 assessed as residual activity at 10 uM relative to control
Sequence of Receptor-type tyrosine-protein kinase FLT3 (Homo sapiens) (P36888 whole entry): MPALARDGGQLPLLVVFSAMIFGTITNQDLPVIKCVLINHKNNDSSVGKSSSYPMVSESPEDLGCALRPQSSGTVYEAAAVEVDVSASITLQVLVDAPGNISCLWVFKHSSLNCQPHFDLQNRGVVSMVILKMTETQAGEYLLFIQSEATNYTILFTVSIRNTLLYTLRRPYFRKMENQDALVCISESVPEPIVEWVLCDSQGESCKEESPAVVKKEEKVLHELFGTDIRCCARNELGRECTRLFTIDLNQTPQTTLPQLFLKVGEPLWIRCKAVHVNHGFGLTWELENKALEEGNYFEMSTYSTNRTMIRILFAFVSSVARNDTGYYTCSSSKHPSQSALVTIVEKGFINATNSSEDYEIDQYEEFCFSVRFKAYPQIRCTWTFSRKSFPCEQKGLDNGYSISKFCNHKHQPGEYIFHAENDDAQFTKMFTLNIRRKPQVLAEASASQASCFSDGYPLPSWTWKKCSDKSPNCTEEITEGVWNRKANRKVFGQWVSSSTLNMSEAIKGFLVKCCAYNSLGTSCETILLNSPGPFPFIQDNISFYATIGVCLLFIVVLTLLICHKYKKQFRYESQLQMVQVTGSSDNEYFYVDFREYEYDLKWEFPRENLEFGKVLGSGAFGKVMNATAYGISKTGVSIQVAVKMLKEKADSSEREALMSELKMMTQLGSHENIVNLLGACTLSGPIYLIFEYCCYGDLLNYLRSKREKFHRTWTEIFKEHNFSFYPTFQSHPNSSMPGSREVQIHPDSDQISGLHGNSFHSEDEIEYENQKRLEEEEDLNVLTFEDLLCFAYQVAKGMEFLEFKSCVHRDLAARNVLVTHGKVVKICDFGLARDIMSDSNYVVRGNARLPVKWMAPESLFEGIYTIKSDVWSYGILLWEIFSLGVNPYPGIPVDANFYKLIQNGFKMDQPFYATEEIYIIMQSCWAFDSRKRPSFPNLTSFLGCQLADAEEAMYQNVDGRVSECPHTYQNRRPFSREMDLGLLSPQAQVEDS

[9] = molecular target: Proto-oncogene tyrosine-protein kinase ROS (Homo sapiens) (UniProt P08922); experiment: Inhibition of recombinant N-terminal His6-tagged human ROS (1883 to end residues) expressed in baculovirus infected Sf21 insect cells at 10 uM relative to control
Sequence of Proto-oncogene tyrosine-protein kinase ROS (Homo sapiens) (P08922 whole entry): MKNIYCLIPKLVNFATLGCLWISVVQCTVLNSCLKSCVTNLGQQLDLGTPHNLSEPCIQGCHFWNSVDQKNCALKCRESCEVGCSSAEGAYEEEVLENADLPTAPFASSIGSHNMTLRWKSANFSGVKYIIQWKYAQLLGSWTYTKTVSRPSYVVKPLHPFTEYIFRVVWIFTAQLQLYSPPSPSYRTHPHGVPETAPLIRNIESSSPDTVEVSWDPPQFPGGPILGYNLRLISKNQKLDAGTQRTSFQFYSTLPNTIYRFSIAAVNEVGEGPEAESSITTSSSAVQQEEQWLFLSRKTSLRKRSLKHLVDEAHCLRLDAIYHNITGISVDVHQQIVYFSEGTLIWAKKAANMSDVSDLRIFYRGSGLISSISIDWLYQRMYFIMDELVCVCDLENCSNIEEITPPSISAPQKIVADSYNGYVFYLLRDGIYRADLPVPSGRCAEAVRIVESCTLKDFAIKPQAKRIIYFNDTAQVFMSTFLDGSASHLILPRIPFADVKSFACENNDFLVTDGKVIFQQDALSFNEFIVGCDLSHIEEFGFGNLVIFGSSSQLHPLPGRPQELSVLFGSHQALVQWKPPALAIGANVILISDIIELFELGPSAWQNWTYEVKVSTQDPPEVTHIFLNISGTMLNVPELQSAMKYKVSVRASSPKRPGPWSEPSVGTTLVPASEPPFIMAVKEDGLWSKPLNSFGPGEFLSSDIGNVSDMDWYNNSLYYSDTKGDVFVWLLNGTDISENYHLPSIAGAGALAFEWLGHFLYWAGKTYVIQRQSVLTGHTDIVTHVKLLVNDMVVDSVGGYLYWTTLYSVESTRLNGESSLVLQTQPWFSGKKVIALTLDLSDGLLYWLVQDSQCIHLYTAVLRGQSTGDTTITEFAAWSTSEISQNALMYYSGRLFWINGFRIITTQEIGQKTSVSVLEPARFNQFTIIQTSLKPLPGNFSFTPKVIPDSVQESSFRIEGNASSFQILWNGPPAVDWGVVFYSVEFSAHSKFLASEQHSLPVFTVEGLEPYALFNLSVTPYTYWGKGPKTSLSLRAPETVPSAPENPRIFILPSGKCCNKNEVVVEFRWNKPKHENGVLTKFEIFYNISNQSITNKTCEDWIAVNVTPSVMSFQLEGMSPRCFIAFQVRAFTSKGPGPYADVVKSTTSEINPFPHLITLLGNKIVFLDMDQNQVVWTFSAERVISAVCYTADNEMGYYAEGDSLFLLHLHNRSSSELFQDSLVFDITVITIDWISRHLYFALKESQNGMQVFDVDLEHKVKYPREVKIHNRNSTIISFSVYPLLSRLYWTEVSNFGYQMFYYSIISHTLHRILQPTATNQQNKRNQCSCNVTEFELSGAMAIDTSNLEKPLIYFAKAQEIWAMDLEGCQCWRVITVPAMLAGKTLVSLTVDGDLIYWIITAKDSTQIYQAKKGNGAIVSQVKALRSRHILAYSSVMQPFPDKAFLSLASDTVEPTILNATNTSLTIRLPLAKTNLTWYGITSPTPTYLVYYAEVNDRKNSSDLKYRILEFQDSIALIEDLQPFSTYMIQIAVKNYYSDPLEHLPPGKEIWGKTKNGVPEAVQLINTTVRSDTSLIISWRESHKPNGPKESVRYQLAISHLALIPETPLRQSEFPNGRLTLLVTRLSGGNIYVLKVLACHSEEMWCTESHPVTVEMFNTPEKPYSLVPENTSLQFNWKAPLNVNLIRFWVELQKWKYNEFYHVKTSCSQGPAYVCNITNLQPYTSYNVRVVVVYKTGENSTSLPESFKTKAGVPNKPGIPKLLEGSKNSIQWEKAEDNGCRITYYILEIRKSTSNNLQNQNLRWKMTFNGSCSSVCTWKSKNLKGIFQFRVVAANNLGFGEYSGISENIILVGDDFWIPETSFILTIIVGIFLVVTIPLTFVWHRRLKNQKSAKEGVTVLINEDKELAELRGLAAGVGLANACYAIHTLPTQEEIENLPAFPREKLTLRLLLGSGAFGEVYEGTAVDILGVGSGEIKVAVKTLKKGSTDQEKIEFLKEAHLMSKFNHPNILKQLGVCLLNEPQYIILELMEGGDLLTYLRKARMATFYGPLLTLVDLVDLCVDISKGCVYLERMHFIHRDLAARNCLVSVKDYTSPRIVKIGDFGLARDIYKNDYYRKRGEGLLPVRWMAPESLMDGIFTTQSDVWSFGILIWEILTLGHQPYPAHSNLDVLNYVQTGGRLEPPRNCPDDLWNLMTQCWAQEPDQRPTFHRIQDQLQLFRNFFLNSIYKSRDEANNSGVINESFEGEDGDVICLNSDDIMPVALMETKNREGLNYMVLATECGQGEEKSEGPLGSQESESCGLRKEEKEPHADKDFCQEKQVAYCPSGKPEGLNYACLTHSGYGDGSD

HOP-92 = experiment: cells; type: functional; conditions: Homo sapiens, time 48 hrs
Description: Growth inhibition of human HOP-92 cells incubated for 48 hrs by sulforhodamine B assay

[10] = molecular target: Proto-oncogene tyrosine-protein kinase receptor Ret (Homo sapiens) (UniProt P07949); experiment: Inhibition of recombinant N-terminal GST-tagged human RET (658 to end residues) expressed in baculovirus infected Sf21 insect cells at 10 uM relative to control
[11] = tested on: Serine/threonine-protein kinase B-raf (Homo sapiens), P15056 [V600E]; experiment: Inhibition of recombinant N-terminal GST-tagged human BRAF V599E mutant (417 to 766 residues) expressed in Sf9 cells assessed as residual activity at 10 uM relative to control
Sequence of Serine/threonine-protein kinase B-raf (Homo sapiens), P15056 [V600E] (P15056 whole entry V600E, the tested form may be a part): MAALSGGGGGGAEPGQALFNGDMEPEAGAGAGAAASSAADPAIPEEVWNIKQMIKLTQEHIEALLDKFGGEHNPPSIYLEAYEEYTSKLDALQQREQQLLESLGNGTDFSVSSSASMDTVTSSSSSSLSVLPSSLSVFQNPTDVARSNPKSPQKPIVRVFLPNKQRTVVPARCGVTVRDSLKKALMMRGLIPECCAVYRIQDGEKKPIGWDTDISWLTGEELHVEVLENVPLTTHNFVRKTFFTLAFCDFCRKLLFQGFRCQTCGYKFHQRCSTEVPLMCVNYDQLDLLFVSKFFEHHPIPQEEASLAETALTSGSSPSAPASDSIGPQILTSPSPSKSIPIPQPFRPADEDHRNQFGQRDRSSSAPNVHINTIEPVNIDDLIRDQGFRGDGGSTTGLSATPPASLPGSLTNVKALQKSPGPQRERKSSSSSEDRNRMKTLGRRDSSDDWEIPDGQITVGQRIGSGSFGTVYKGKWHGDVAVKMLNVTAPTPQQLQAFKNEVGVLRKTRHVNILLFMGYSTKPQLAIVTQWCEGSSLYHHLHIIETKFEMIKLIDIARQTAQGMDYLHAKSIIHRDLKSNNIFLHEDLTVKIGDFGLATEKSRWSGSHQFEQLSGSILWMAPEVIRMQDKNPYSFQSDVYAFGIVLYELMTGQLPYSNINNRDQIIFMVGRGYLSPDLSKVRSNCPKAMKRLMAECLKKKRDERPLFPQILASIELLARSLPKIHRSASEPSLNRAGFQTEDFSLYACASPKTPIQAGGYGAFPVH

SR = experiment: cells; type: functional; conditions: Homo sapiens, time 48 hrs
Description: Growth inhibition of human SR cells incubated for 48 hrs by sulforhodamine B assay

[12] = molecular target: Cyclin-dependent kinase 2/cyclin E1 (Homo sapiens) (UniProt P24864+P24941); experiment: Inhibition of full length C-terminal His6-tagged human CDK2/full length N-terminal GST-tagged human Cyclin E expressed in baculovirus infected Sf21 insect cells assessed as residual activity at 10 uM relative to control
NCI-H226 = experiment: cells; type: functional; conditions: Homo sapiens, time 48 hrs
Description: Growth inhibition of human NCI-H226 cells incubated for 48 hrs by sulforhodamine B assay

[13] = molecular target: Fibroblast growth factor receptor 2 (Homo sapiens) (UniProt P21802); experiment: Inhibition of N-terminal His6-tagged human FGFR2 (456 to 770 residues) expressed in baculovirus-infected Sf21 cells assessed as residual activity at 10 uM relative to control
[14] = molecular target: Vascular endothelial growth factor receptor 3 (Homo sapiens) (UniProt P35916); experiment: Inhibition of N-terminal GST-tagged human FLT4 (800 to end residues) expressed in baculovirus infected Sf21 cells assessed as residual activity at 10 uM relative to control
SK-MEL-28 = experiment: cells; type: functional; conditions: Homo sapiens, time 48 hrs
Description: Growth inhibition of human SK-MEL-28 cells incubated for 48 hrs by sulforhodamine B assay

Hs-578T = experiment: cells; type: functional; conditions: Homo sapiens, time 48 hrs
Description: Growth inhibition of human Hs-578T cells incubated for 48 hrs by sulforhodamine B assay

UO-31 = experiment: cells; type: functional; conditions: Homo sapiens, time 48 hrs
Description: Growth inhibition of human UO-31 cells incubated for 48 hrs by sulforhodamine B assay

[15] = molecular target: Fibroblast growth factor receptor 3 (Homo sapiens) (UniProt P22607); experiment: Inhibition of N-terminal His6-tagged human FGFR3 (447 to 761 residues) expressed in Sf21 cells assessed as residual activity at 10 uM relative to control
KM12 = experiment: cells; type: functional; conditions: Homo sapiens, time 48 hrs
Description: Growth inhibition of human KM12 cells incubated for 48 hrs by sulforhodamine B assay

HCT-15 = experiment: cells; type: functional; conditions: Homo sapiens, time 48 hrs
Description: Growth inhibition of human HCT-15 cells incubated for 48 hrs by sulforhodamine B assay

[16] = molecular target: ALK tyrosine kinase receptor (Homo sapiens) (UniProt Q9UM73); experiment: Inhibition of N-terminal His6-tagged human recombinant ALK (1058 to end residues) expressed in baculovirus infected Sf21 cells assessed as residual activity at 10 uM relative to control
IGROV-1 = experiment: cells; type: functional; conditions: Homo sapiens, time 48 hrs
Description: Growth inhibition of human IGROV-1 cells incubated for 48 hrs by sulforhodamine B assay

[17] = molecular target: RAF proto-oncogene serine/threonine-protein kinase (Homo sapiens) (UniProt P04049); experiment: Inhibition of recombinant N-terminal GST-tagged human CRAF (306 to 648 residues) expressed in Sf9 cells assessed as residual activity at 10 uM relative to control
[18] = molecular target: Tyrosine-protein kinase SYK (Homo sapiens) (UniProt P43405); experiment: Inhibition of recombinant full length N-terminal His6-tagged human SYK expressed in baculovirus infected Sf21 insect cells at 10 uM relative to control
PC-3 = experiment: cells; type: functional; conditions: Homo sapiens, time 48 hrs
Description: Growth inhibition of human PC-3 cells incubated for 48 hrs by sulforhodamine B assay

[19] = molecular target: Serine/threonine-protein kinase B-raf (Homo sapiens) (UniProt P15056); experiment: Inhibition of recombinant N-terminal GST-tagged human BRAF (417 to 766 residues) expressed in Sf9 cells assessed as residual activity at 10 uM relative to control
Sequence of Serine/threonine-protein kinase B-raf (Homo sapiens) (P15056 whole entry, the tested form may be a part): as the sequence (P15056 whole entry V600E, the tested form may be a part) above, with E600V counted along it

SNB-75 = experiment: cells; type: functional; conditions: Homo sapiens, time 48 hrs
Description: Growth inhibition of human SNB-75 cells incubated for 48 hrs by sulforhodamine B assay

HCT-116 = experiment: cells; type: functional; conditions: Homo sapiens, time 48 hrs
Description: Growth inhibition of human HCT-116 cells incubated for 48 hrs by sulforhodamine B assay

cells = type: functional; conditions: Homo sapiens, Non-small cell lung cancer cell line; time 48 hrs
Description: Growth inhibition of human Non-small cell lung cancer cell line incubated for 48 hrs by sulforhodamine B assay

RXF 393 = experiment: cells; type: functional; conditions: Homo sapiens, time 48 hrs
Description: Growth inhibition of human RXF 393 cells incubated for 48 hrs by sulforhodamine B assay

[20] = molecular target: Cytoplasmic tyrosine-protein kinase BMX (Homo sapiens) (UniProt P51813); experiment: Inhibition of N-terminal full length His6-tagged human recombinant BMX expressed in Sf21 cells assessed as residual activity at 10 uM relative to control
NCI-H322M = experiment: cells; type: functional; conditions: Homo sapiens, time 48 hrs
Description: Growth inhibition of human NCI-H322M cells incubated for 48 hrs by sulforhodamine B assay

[21] = molecular target: Serine/threonine-protein kinase Sgk1 (Homo sapiens) (UniProt O00141); experiment: Inhibition of human SGK1 at 10 uM relative to control; conditions: Sf21
Sequence of Serine/threonine-protein kinase Sgk1 (Homo sapiens) (O00141 whole entry): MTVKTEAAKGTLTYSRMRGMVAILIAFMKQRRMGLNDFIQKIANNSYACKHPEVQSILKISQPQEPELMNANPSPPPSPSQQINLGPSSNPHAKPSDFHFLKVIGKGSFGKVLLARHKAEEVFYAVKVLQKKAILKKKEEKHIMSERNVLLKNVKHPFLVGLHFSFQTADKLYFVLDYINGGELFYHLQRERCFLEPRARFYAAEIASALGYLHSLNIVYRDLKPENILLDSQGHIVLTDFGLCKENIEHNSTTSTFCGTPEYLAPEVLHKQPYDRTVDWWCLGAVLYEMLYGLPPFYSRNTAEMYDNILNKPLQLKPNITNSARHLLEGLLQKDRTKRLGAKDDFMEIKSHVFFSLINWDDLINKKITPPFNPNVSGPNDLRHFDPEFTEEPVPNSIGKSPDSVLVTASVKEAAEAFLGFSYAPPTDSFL

OVCAR-4 = experiment: cells; type: functional; conditions: Homo sapiens, time 48 hrs
Description: Growth inhibition of human OVCAR-4 cells incubated for 48 hrs by sulforhodamine B assay

## CN1CCN(CCCOc2cccc3nc(Nc4ccc(Cl)c(C(F)(F)F)c4)ccc23)CC1
[1]
  inhibition: < 60%
A549
  GI50: 1720 nM
[2]
  inhibition: < 60%
[3]
  inhibition: < 60%
[4]
  inhibition: < 60%
[5]
  inhibition: < 60%
[6]
  GI50: 1620 nM
  TGI: 3470 nM
[6]; read-out: LC50 (the source's name)
  CC50: 8130 nM
[7]
  Activity: < 60%
U-251
  GI50: 1490 nM
[8]
  Activity: 66%
[9]
  inhibition: < 60%
HOP-92
  GI50: 1020 nM
[10]
  inhibition: < 60%
[11]
  Activity: < 60%
SR
  GI50: 540 nM
[12]
  Activity: < 60%
NCI-H226
  GI50: 2070 nM
[13]
  Activity: < 60%
[14]
  Activity: < 60%
SK-MEL-28
  GI50: 1390 nM
Hs-578T
  GI50: 2000 nM
UO-31
  GI50: 1460 nM
[15]
  Activity: < 60%
KM12
  GI50: 1740 nM
HCT-15
  GI50: 1220 nM
[16]
  Activity: < 60%
IGROV-1
  GI50: 1850 nM
[17]
  Activity: < 60%
[18]
  inhibition: < 60%
PC-3
  GI50: 1570 nM
[19]
  Activity: < 60%
SNB-75
  GI50: 1520 nM
HCT-116
  GI50: 1500 nM
cells
  GI50: 1680 nM
  LC50 (50% lethal concentration): 10100 nM
  TGI: 3660 nM
RXF 393
  GI50: 1630 nM
[20]
  Activity: < 60%
NCI-H322M
  GI50: 1440 nM
[21]
  inhibition: < 60%
OVCAR-4
  GI50: 2730 nM
